Experimental data from US20090263521A1, “COMPOSITION FOR THE TREATMENT OF CANCERS AND INHIBITION OF METASTASIS CONTAINING EXTRACTS OR FRACTIONS OF THE MAGNOLIA OBOVATA” (KOREA RESEARCH INSTITUTE OF BIOSCIENCE AND BIOTECHNOLOGY, priority 2008, published 2009).

Tested on: human colon cancer cell line SW620
Test: In vivo anticancer effect, SW620 transplanted nude mice
Design: species or system BALB/c nude mice
Protocol: Female SPF BALB/c nude mice purchased from Charles River, Japan, were used as test animals. They were at 6 weeks and weighed 14-17 g. Before being used for experiments, the test animals were adapted at least one week in a clean animal lab. Temperature of the animal lab was 21±2° C. and humidity was set at 55±5%. Light/dark cycle was automatically regulated as 12/12. The solid feeds for the test animals were radiation sterilized products (Polas International, Seoul, Korea). Drinking water was sterilized by autoclave. Feeds and drinking water were given freely.
For the cancer cell line, human colon cancer cell line SW620 purchased from ATCC, USA and stored at Korean Research Institute of Bioscience and Biotechnology was used. […] On the final day of culture, every cell was collected and counted and the final cell concentration was regulated to 1×10^7 cells/ml by adding saline.
SW620 cancer cells were hypodermically injected in the right armpit in-between the shoulder and the wall of chest by 0.3 ml at the concentration of 3×10^6 cells/mouse. […] Weight changes of the test animals were measured three times per week. Tumor volume was measured 7 times from day 5 to day 20 in every test animal. Precisely, the tumor volume was measured by measuring three dimensions of the tumor using Vernier Caliper and then calculated by the following formula: […]

In the case of COc1cccc2c1C(=O)c1c(O)c3c(c(O)c1C2=O)C[C@@](O)(C(=O)CO)C[C@@H]3O[C@H]1C[C@H](N)[C@H](O)[C@H](C)O1 [adriamycin], the weight loss (adriamycin administered positive control, p<0.001) is reported as 13.1% and the tumor growth inhibition (positive control, P<0.001) is reported as 58.0%.
